Source: US9493486B2, “Diazaspirocycloalkane and azaspirocycloalkane” (Hoffmann-La Roche Inc., priority 2012, dated 2016)

Molecular target: ATX (human His-tagged) (Homo sapiens (Human), UniProt Q13822)
Assay: Human ATX enzyme inhibition assay (fluorescence quenching, MR121 substrate)
Assay type: biochemical
Settings: 30 nM ATX, 1 μM MR121 substrate, 30° C.
Excerpt: Human ATX Enzyme Inhibition Assay
Assay working solutions were made as follows:

| SMILES | IC50 |
| --- | --- |
| O=C(OCc1ccc(OC(F)(F)F)c(F)c1)N1CC2(CCN(C(=O)C3CCc4[nH]nnc4C3)CC2)C1 (stereo not drawn) [Example 12.33, 3-fluoro-4-(trifluoromethoxy)benzyl 7-(4,5,6,7-tetrahydro-1H-benzo[d][1,2,3]triazole-5-carbonyl)-2,7-diazaspiro[3.5]nonane-2-carboxylate] | 13 nM |
| O=C(OCc1ccc(C(F)(F)F)cc1F)N1CCC2(CC1)CN(C(=O)C1CCc3[nH]nnc3C1)C2 (stereo not drawn) [Example 12.36, [2-fluoro-4-(trifluoromethyl)phenyl]methyl 2-(4,5,6,7-tetrahydro-1H-benzotriazole-5-carbonyl)-2,7-diazaspiro[3.5]nonane-7-carboxylate] | 1 nM |
| Cc1cc(OC(F)(F)F)ccc1COC(=O)N1CCC2(CC1)CN(C(=O)C1CCc3[nH]nnc3C1)C2 (stereo not drawn) [Example 12.37, [2-methyl-4-(trifluoromethoxy)phenyl]methyl 2-(4,5,6,7-tetrahydro-1H-benzotriazole-5-carbonyl)-2,7-diazaspiro[3.5]nonane-7-carboxylate] | 1 nM |
| O=C(OCc1ccc(OCC(F)(F)F)cc1)N1CCC2(CC1)CN(C(=O)C1CCc3nn[nH]c3C1)C2 (stereo not drawn) [Example 12.39, 4-(2,2,2-trifluoroethoxy)benzyl 2-(4,5,6,7-tetrahydro-1H-benzo[d][1,2,3]triazole-6-carbonyl)-2,7-diazaspiro[3.5]nonane-7-carboxylate] | 5 nM |
| O=C(OCc1cc(Cl)cc(C(F)(F)F)c1)N1CCC2(CC1)CN(C(=O)c1ccc3[nH]nnc3c1)C2 [Example 12.44, 3-chloro-5-(trifluoromethyl)benzyl 2-(1H-benzo[d][1,2,3]triazole-5-carbonyl)-2,7-diazaspiro[3.5]nonane-7-carboxylate] | 8 nM |
| O=C(OCc1ccc(OC(F)(F)F)cc1F)N1CCC2(CC1)CN(C(=O)N1CCc3[nH]nnc3C1)C2 [Example 13.01, 2-fluoro-4-(trifluoromethoxy)benzyl 2-(4,5,6,7-tetrahydro-1H-[1,2,3]triazolo[4,5-c]pyridine-5-carbonyl)-2,7-diazaspiro[3.5]nonane-7-carboxylate] | 1 nM |
| O=C(NCc1c[nH]nn1)N1CC2(CCN(C(=O)OCc3ccc(OC(F)(F)F)cc3)CC2)C1 [Example 14, [4-(Trifluoromethoxy)phenyl]methyl 2-((1H-triazol-4-ylmethyl)carbamoyl)-2,7-diazaspiro[3.5]nonane-7-carboxylate] | 23 nM |
| O=C(OCc1ccc(C(F)(F)F)cc1F)N1CCC2(CC1)CN(C(=O)[C@H]1CCc3[nH]nnc3C1)C2 [Example 16A, (S)-[2-Fluoro-4-(trifluoromethyl)phenyl]methyl 2-[4,5,6,7-tetrahydro-1H-benzotriazole-5-carbonyl]-2,7-diazaspiro[3.5]nonane-7-carboxylate] | 100 nM |

Continued, values first:

| IC50 | SMILES |
| --- | --- |
| 44 nM | O=C(NCc1cnn[nH]1)C1CC2(CCN(C(=O)OCc3cc(Cl)cc(Cl)c3)CC2)C1 [Example 12.32, 2-[(3H-[1,2,3]triazol-4-ylmethyl)-carbamoyl]-7-aza-spiro[3.5]nonane-7-carboxylic acid 3,5-dichloro-benzyl ester] |
| 10 nM | O=C(OCc1ccc(OC(F)(F)F)cc1)N1CC2(CCN(C(=O)C3CCc4[nH]nnc4C3)CC2)C1 (stereo not drawn) [Example 12.34, 4-(trifluoromethoxy)benzyl 7-(4,5,6,7-tetrahydro-1H-benzo[d][1,2,3]triazole-5-carbonyl)-2,7-diazaspiro[3.5]nonane-2-carboxylate] |
| 2.5 nM | O=C(OCc1ccc(OCC(F)(F)F)cc1F)N1CCC2(CC1)CN(C(=O)C1CCc3nn[nH]c3C1)C2 (stereo not drawn) [Example 12.38, 2-fluoro-4-(2,2,2-trifluoroethoxy)benzyl 2-(4,5,6,7-tetrahydro-1H-benzo[d][1,2,3]triazole-6-carbonyl)-2,7-diazaspiro[3.5]nonane-7-carboxylate] |
| 2.5 nM | O=C(OCc1ccc(OCC(F)(F)F)c(F)c1)N1CCC2(CC1)CN(C(=O)C1CCc3nn[nH]c3C1)C2 (stereo not drawn) [Example 12.40, 3-fluoro-4-(2,2,2-trifluoroethoxy)benzyl 2-(4,5,6,7-tetrahydro-1H-benzo[d][1,2,3]triazole-6-carbonyl)-2,7-diazaspiro[3.5]nonane-7-carboxylate] |
| 2 nM | O=C(OCc1ccc(OC(F)(F)F)cc1F)N1CC2(CCN(C(=O)C3CCc4[nH]nnc4C3)CC2)C1 (stereo not drawn) [Example 12.41, 2-fluoro-4-(trifluoromethoxy)benzyl 7-(4,5,6,7-tetrahydro-1H-benzo[d][1,2,3]triazole-5-carbonyl)-2,7-diazaspiro[3.5]nonane-2-carboxylate] |
| 1 nM | O=C(OCc1ccc(OC(F)(F)F)cc1)N1CCC2(CC1)CN(C(=O)C1CCc3[nH]nnc3C1)C2 (stereo not drawn) [Example 12.43, 4-(trifluoromethoxy)benzyl 2-(4,5,6,7-tetrahydro-1H-benzo[d][1,2,3]triazole-5-carbonyl)-2,7-diazaspiro[3.5]nonane-7-carboxylate] |
| 39 nM | CS(=O)(=O)c1cc(COC(=O)N2CCC3(CC2)CN(S(=O)(=O)c2ccc4[nH]c(=O)oc4c2)C3)cc(C(F)(F)F)c1 [Example 12.45, 3-(methylsulfonyl)-5-(trifluoromethyl)benzyl 2-(2-oxo-2,3-dihydrobenzo[d]oxazol-6-ylsulfonyl)-2,7-diazaspiro[3.5]nonane-7-carboxylate] |
| 3 nM | O=C(OCc1ccc(OC(F)(F)F)cc1)N1CCC2(CC1)CN(C(=O)N1CCc3[nH]nnc3C1)C2 [Example 13, 4-(Trifluoromethoxy)benzyl 2-(4,5,6,7-tetrahydro-1H-[1,2,3]triazolo[4,5-c]pyridine-5-carbonyl)-2,7-diazaspiro[3.5]nonane-7-carboxylate] |
| 41.5 nM | O=C(NCc1c[nH]nn1)N1CC2(CCN(C(=O)OCc3ccc(OC(F)(F)F)cc3F)CC2)C1 [Example 14.01, [2-Fluoro-4-(trifluoromethoxy)phenyl]methyl 2-((1H-triazol-4-ylmethyl)carbamoyl)-2,7-diazaspiro[3.5]nonane-7-carboxylate] |
| 9 nM | O=C(OCc1ccc(C(F)(F)F)cc1F)N1CCC2(CC1)CN(C(=O)[C@@H]1CCc3[nH]nnc3C1)C2 [Example 16B, (R)-[2-fluoro-4-(trifluoromethyl)phenyl]methyl 2-[4,5,6,7-tetrahydro-1H-benzotriazole-5-carbonyl]-2,7-diazaspiro[3.5]nonane-7-carboxylate] |
